Assay results from PMC10052868 (European journal of medicinal chemistry, 2022).

Legend:
PfPK6 = PfPK6 (Plasmodium falciparum, UniProt Q8IDW1); experiment: KinaseSeeker split-luciferase assay on PfPK6; type: binding, P. falciparum; details: for remaining activity at 1 µM: read-out: PfPK6 activity remaining at 1 μM (%)
P. falciparum 3D7 = experiment: P. falciparum asexual blood stage viability assay; type: cell-based; details: for Pf3D7 blood stage activity at single concentration: Inactive = no inhibition when tested in triplicate at a single concentration of 1 μM; for fold improvement in P. falciparum blood stage potency on adding CF3 or OCF3: compared to parent compound without meta group (64, 66, 67 or 68)
PfGSK3 = PfGSK3 (Plasmodium falciparum, UniProt O77344); experiment: KinaseSeeker assay on PfGSK3; type: binding, P. falciparum
[1] = tested on: panel of 468 kinases (403 non-mutant kinases); type: binding, human; details: for number of non-mutant kinases inhibited with ≤1% control: 1 μM, out of 403 non-mutant kinases
PfCDPK5 = PfCDPK5 (Plasmodium falciparum, UniProt A0A5K1K8H0); experiment: KinaseSeeker assay on PfCDPK5; type: binding, P. falciparum
PfPKB = PfPKB (Plasmodium falciparum, UniProt Q8I4W3); experiment: KinaseSeeker assay on PfPKB; type: binding, P. falciparum
PfNEK3 = target: T1, PfNEK3 (Plasmodium falciparum, UniProt Q8I629); experiment: KinaseSeeker assay on PfNEK3; type: binding, P. falciparum
T1 sequence (Q8I629 1-347): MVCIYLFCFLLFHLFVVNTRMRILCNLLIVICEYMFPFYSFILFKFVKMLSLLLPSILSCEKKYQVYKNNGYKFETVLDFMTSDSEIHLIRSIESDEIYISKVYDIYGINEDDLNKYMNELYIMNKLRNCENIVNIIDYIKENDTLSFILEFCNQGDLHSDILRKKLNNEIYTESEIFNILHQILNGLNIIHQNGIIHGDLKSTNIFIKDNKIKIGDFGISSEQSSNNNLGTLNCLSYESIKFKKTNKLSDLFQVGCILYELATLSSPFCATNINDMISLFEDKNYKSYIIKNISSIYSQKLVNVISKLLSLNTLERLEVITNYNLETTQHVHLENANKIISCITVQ

P. berghei ANKA = experiment: P. berghei liver stage parasite load assay in HepG2 cells; type: cell-based; details: for P. berghei liver stage activity in words: inactive = EC50 not reported because <5-fold difference between observed EC50 and HepG2 CellTiter-Fluor cytotoxicity; for fold difference between P. berghei EC50 and CellTiter-Fluor CC50: HepG2 host cells
PfNEK1 = experiment: KinaseSeeker assay on PfNEK1; type: binding, P. falciparum; details: duplicate
PfARK3 = experiment: KinaseSeeker assay on PfARK3; type: binding, P. falciparum; details: duplicate
PfPK9 = experiment: KinaseSeeker assay on PfPK9; type: binding, P. falciparum; details: duplicate
PfPK5 = PfPK5 (Plasmodium falciparum, UniProt P61075); experiment: KinaseSeeker assay on PfPK5; type: binding, P. falciparum; details: read-out: PfPK5 % Activity remaining at 1 μM
PfARK1 = experiment: KinaseSeeker assay on PfARK1; type: binding, P. falciparum; details: duplicate
[2] = GE = −ΔΔG / Δ(no. of heavy atoms), PfPK6 inhibition

Sequence of PfPK5 (P61075 whole entry): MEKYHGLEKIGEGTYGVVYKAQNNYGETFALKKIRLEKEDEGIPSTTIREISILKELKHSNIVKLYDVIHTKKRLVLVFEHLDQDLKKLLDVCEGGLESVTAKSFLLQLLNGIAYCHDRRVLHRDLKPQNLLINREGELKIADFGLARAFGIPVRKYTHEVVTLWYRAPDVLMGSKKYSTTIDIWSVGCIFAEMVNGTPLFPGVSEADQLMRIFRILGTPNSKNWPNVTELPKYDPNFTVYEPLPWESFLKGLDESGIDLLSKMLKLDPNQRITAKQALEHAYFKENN
Sequence of PfCDPK5 (A0A5K1K8H0 whole entry): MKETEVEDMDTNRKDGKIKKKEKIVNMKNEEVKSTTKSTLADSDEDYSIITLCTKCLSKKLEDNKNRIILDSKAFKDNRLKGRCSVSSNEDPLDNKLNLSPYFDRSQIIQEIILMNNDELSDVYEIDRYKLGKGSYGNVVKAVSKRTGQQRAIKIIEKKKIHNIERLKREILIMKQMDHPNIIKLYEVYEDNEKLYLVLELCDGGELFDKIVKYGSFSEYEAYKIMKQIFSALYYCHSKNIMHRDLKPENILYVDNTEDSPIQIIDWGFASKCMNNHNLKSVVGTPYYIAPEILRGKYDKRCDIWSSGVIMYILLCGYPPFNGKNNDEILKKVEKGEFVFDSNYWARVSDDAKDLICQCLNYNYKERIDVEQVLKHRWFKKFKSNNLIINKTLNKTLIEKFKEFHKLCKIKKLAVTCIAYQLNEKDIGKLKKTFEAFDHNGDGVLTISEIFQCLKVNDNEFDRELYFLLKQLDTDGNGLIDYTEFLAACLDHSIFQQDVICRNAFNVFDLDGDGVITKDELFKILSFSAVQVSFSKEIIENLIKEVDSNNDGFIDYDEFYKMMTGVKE

SMILES: COc1cc2nccc(Oc3ccc(NC(=O)Nc4cc(C(F)(F)F)ccc4F)c(F)c3)c2cc1OC [Compound 40, 1-(4-((6,7-dimethoxyquinolin-4-yl)oxy)-2-fluorophenyl)-3-(2-fluoro-5-(trifluoromethyl)phenyl)urea]
- IC50 (PfPK6): < 0.005 µM
- Pf3D7 blood stage activity in dose-response (P. falciparum 3D7; Inactive = no inhibition when tested up to 5 μM in two experiments, dose-response): Inactive^d

SMILES: COc1cc2nccc(Oc3ccc(NC(=O)Nc4ccc(CN5CCN(C)CC5)c(C(F)(F)F)c4)c(F)c3)c2cc1OC [Compound 45, 1-(4-((6,7-dimethoxyquinolin-4-yl)oxy)-2-fluorophenyl)-3-(4-((4-methylpiperazin-1-yl)methyl)-3-(trifluoromethyl)phenyl)urea diformate]
- IC50 (PfGSK3): 0.04 to 0.144 µM
- number of non-mutant kinases inhibited with ≤1% control [1]: 134
- IC50 (PfCDPK5): 0.04 to 0.144 µM
- IC50 (PfPKB): 0.04 to 0.144 µM
- IC50 (PfNEK3): 0.04 to 0.144 µM

SMILES: COc1cc2nccc(Oc3ccc(NC(=O)Nc4cccc(C#N)c4)c(F)c3)c2cc1OC [Compound 58, 1-(3-cyanophenyl)-3-(4-((6,7-dimethoxyquinolin-4-yl)oxy)-2-fluorophenyl)urea]
- Pf3D7 blood stage activity at single concentration (P. falciparum 3D7): Inactive^d

SMILES: COc1cc2nccc(Oc3ccc(NC(=O)Nc4ccc(CN5CCOCC5)cc4)c(F)c3)c2cc1OC [Compound 60, 1-(4-((6,7-dimethoxyquinolin-4-yl)oxy)-2-fluorophenyl)-3-(4-(morpholinomethyl)phenyl)urea]
- Pf3D7 blood stage activity at single concentration (P. falciparum 3D7): Inactive^c

SMILES: COc1cc2nccc(Oc3ccc(NC(=O)Nc4ccc(CC5CCNCC5)cc4)c(F)c3)c2cc1OC [Compound 67, 1-(4-((6,7-dimethoxyquinolin-4-yl)oxy)-2-fluorophenyl)-3-(4-(piperidin-4-ylmethyl)phenyl)urea]
- P. berghei liver stage activity in words (P. berghei ANKA): inactive^g
- remaining activity at 1 µM (PfPK6): 2%
- number of non-mutant kinases inhibited with ≤1% control [1]: 22
- PfNEK1 % Activity remaining at 1 μM (PfNEK1): 100%
- PfARK3 % Activity remaining at 1 μM (PfARK3): 100%

SMILES: COc1cc2nccc(Oc3ccc(NC(=O)Nc4ccc(C=C5CCNCC5)cc4)c(F)c3)c2cc1OC [Compound 68, 1-(4-((6,7-dimethoxyquinolin-4-yl)oxy)-2-fluorophenyl)-3-(4-(piperidin-4-ylidenemethyl)phenyl)urea]
- fold difference between P. berghei EC50 and CellTiter-Fluor CC50 (P. berghei ANKA): 1.9 fold
- P. berghei liver stage activity in words (P. berghei ANKA): inactive^g
- remaining activity at 1 µM (PfPK6): 1%
- PfPK9 % Activity remaining at 1 μM (PfPK9): 100%
- PfNEK1 % Activity remaining at 1 μM (PfNEK1): 100%
- PfARK3 % Activity remaining at 1 μM (PfARK3): 100%
- fold improvement in P. falciparum blood stage inhibitory activity over 41 (P. falciparum 3D7; compared to 41): approximately 4 fold
- remaining activity at 1 µM (PfPK5): 100%

SMILES: COc1cc2nccc(Oc3ccc(NC(=O)Nc4ccc(OC5CCN(C)CC5)c(C(F)(F)F)c4)c(F)c3)c2cc1OC [Compound 75, 1-(4-((6,7-dimethoxyquinolin-4-yl)oxy)-2-fluorophenyl)-3-(4-((1-methylpiperidin-4-yl)oxy)-3-(trifluoromethyl)phenyl)urea]
- fold difference between P. berghei EC50 and CellTiter-Fluor CC50 (P. berghei ANKA): 1.9 fold
- P. berghei liver stage activity in words (P. berghei ANKA): inactive^g
- remaining activity at 1 µM (PfPK6): 0%
- PfNEK1 % Activity remaining at 1 μM (PfNEK1): 100%
- fold improvement in P. falciparum blood stage potency on adding CF3 or OCF3 (P. falciparum 3D7): 8 fold

SMILES: COc1cc2nccc(Oc3ccc(NC(=O)Nc4ccc(OC5CCN(C)CC5)c(OC(F)(F)F)c4)c(F)c3)c2cc1OC [Compound 76, 1-(4-((6,7-dimethoxyquinolin-4-yl)oxy)-2-fluorophenyl)-3-(4-((1-methylpiperidin-4-yl)oxy)-3-(trifluoromethoxy)phenyl)urea]
- fold improvement in P. falciparum blood stage potency on adding CF3 or OCF3 (P. falciparum 3D7): 4 fold

SMILES: COc1cc2nccc(Oc3ccc(NC(=O)Nc4ccc(N(C)C5CCN(C)CC5)c(C(F)(F)F)c4)c(F)c3)c2cc1OC [Compound 77, 1-(4-((6,7-dimethoxyquinolin-4-yl)oxy)-2-fluorophenyl)-3-(4-(methyl(1-methylpiperidin-4-yl)amino)-3-(trifluoromethyl)phenyl)urea]
- fold improvement in P. falciparum blood stage potency on adding CF3 or OCF3 (P. falciparum 3D7): 2 fold

SMILES: COc1cc2nccc(Oc3ccc(NC(=O)Nc4ccc(CC5CCNCC5)c(C(F)(F)F)c4)c(F)c3)c2cc1OC [Compound 79, 1-(4-((6,7-dimethoxyquinolin-4-yl)oxy)-2-fluorophenyl)-3-(4-(piperidin-4-ylmethyl)-3-(trifluoromethyl)phenyl)urea]
- IC50 (PfPK6): < 0.005 µM
- remaining activity at 1 µM (PfPK6): 1%
- PfNEK1 % Activity remaining at 1 μM (PfNEK1): 100%
- PfARK1 % Activity remaining at 1 μM (PfARK1): 100%

SMILES: COc1cc2nccc(Oc3ccc(NC(=O)Nc4ccc(CC5CCNCC5)c(OC(F)(F)F)c4)c(F)c3)c2cc1OC [Compound 80, 1-(4-((6,7-dimethoxyquinolin-4-yl)oxy)-2-fluorophenyl)-3-(4-(piperidin-4-ylmethyl)-3-(trifluoromethoxy)phenyl)urea]
- fold improvement in P. falciparum blood stage potency on adding CF3 or OCF3 (P. falciparum 3D7): 2 fold

SMILES: COc1cc2nccc(Oc3ccc(NC(=O)Nc4ccc(C=C5CCNCC5)c(C(F)(F)F)c4)c(F)c3)c2cc1OC [Compound 81, 1-(4-((6,7-dimethoxyquinolin-4-yl)oxy)-2-fluorophenyl)-3-(4-(piperidin-4-ylidenemethyl)-3-(trifluoromethyl)phenyl)urea]
- fold improvement in P. falciparum blood stage potency on adding CF3 or OCF3 (P. falciparum 3D7): 2 fold

SMILES: COc1cc2nccc(Oc3ccc(NC(=O)Nc4ccc(C=C5CCNCC5)c(OC(F)(F)F)c4)c(F)c3)c2cc1OC [Compound 82, 1-(4-((6,7-dimethoxyquinolin-4-yl)oxy)-2-fluorophenyl)-3-(4-(piperidin-4-ylidenemethyl)-3-(trifluoromethoxy)phenyl)urea]
- fold improvement in P. falciparum blood stage potency on adding CF3 or OCF3 (P. falciparum 3D7): 2 fold

SMILES: COc1cc2nccc(Oc3ccc(NC(=O)Nc4ccc(F)cc4F)c(F)c3)c2cc1OC [Ki8751, reference compound]
- group efficiency (GE) of the 7-methoxy group (PfPK6; [2]): 0.81 ± 0.04
- group efficiency (GE) of the entire urea group (PfPK6; [2]): 0.39 ± 0.02
- group efficiency (GE) of the tail phenyl ring (PfPK6; [2]): > 0.41 ± 0.005
- number of non-mutant kinases inhibited with ≤1% control [1]: 16
- selectivity score S1 (1 μM) ([1]; KINOMEscan, 403 non-mutant kinases): 0.040
